One may read the Ki as the equilibrium dissociation constant of an inhibitor or competing ligand from its target. Lower therefore signals tighter binding.

This is an account of results in ChEMBL document CHEMBL1255205, “Validated predictive QSAR modeling of N-aryl-oxazolidinone-5-carboxamides for anti-HIV protease activity” (Bioorg Med Chem Lett, 2010).

Sequence of Protease (Q9YQ12 whole entry): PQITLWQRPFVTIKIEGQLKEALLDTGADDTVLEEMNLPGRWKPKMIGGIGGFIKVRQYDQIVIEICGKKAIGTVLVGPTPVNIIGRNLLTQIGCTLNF

This test concerns the target Protease (Human immunodeficiency virus 1, UniProt Q9YQ12). The experiment in a line: Inhibition of HIV1 protease.
In turn, `O=C(N[C@@H](Cc1ccccc1)C(O)C[C@H](Cc1ccccc1)NC(=O)[C@@H]1CN(c2cccc(C(F)(F)F)c2)C(=O)O1)OCc1ccccn1` (stereo partly drawn) yielded a Ki of 0.0411 µM. `Cc1cccc(C)c1OCC(=O)N[C@@H](Cc1ccccc1)C(O)C[C@H](Cc1ccccc1)NC(=O)[C@@H]1CN(c2ccccc2)C(=O)O1` (stereo partly drawn) had an inhibition constant Ki of 4.73 µM. Turning to `Cc1cccc(C)c1OCC(=O)N[C@@H](Cc1ccccc1)CC(O)[C@H](Cc1ccccc1)NC(=O)[C@@H]1CN(c2ccccc2)C(=O)O1` (stereo partly drawn), the Ki was found to be 0.00805 µM. Then `CC(=O)c1ccc(N2C[C@@H](C(=O)N[C@@H](Cc3ccccc3)C(O)C[C@H](Cc3ccccc3)NC(=O)COc3c(C)cccc3C)OC2=O)cc1` (stereo partly drawn), with 0.0399 µM. Then `CC(=O)c1cccc(N2C[C@@H](C(=O)N[C@@H](Cc3ccccc3)C(O)C[C@H](Cc3ccccc3)NC(=O)COc3c(C)cccc3C)OC2=O)c1` (stereo partly drawn), with 0.0351 µM; and `O=C(Cc1ccc2c(c1)OCO2)N[C@H](CC[C@H](Cc1ccccc1)NC(=O)[C@@H]1CN(c2ccccc2)C(=O)O1)Cc1ccccc1`, with 0.657 µM.

For the molecule `CC(=O)NC(C(=O)N[C@@H](Cc1ccccc1)CC(O)[C@H](Cc1ccccc1)NC(=O)[C@@H]1CN(c2ccc(F)c(F)c2)C(=O)O1)C(C)C` (stereo partly drawn), the affinity, expressed as Ki, was 0.00213 µM. This Ki is about 310-fold lower than that of the molecule before. On to `COC(=O)NC(C(=O)N[C@@H](Cc1ccccc1)CC(O)[C@H](Cc1ccccc1)NC(=O)[C@@H]1CN(c2ccccc2)C(=O)O1)C(C)(C)C` (stereo partly drawn), for which the affinity, expressed as Ki, was 0.00351 µM. For `COC(=O)NC(C(=O)N[C@@H](Cc1ccccc1)C(O)CN(CC(C)C)NC(=O)C1CN(c2ccccc2)C(=O)O1)C(C)(C)C` (stereo partly drawn) the value was 0.0106 µM; for `Cc1cccc(C)c1OCC(=O)N[C@@H](Cc1ccccc1)C(O)C[C@H](Cc1ccccc1)NC(=O)[C@@H]1CN(c2cccc(C(F)(F)F)c2)C(=O)O1` (stereo partly drawn), 0.0216 µM. Turning to `COC(=O)NC(C(=O)NN(CC(C)C)CC(O)[C@H](Cc1ccccc1)NC(=O)[C@@H]1CN(c2ccccc2)C(=O)O1)C(C)(C)C` (stereo partly drawn), the affinity corresponds to a Ki of 0.007 µM. This Ki is about 3.1-fold lower than that of the molecule before. For `CC(=O)NC(C(=O)N[C@@H](Cc1ccccc1)CC(O)[C@H](Cc1ccccc1)NC(=O)[C@@H]1CN(c2cccc(C(F)(F)F)c2)C(=O)O1)C(C)C` (stereo partly drawn) the value was 0.00262 µM; for `CC(=O)c1cccc(N2CC(C(=O)NN(Cc3ccc(-c4ccccn4)cc3)CC(O)[C@H](Cc3ccccc3)NC(=O)[C@@H]3CN(c4cccc(C(C)=O)c4)C(=O)O3)OC2=O)c1` (stereo partly drawn), 1.09 µM.
